Assay results reported in ChEMBL document CHEMBL3046125, “Design and synthesis of niflumic acid-based N-acylhydrazone derivatives as novel anti-inflammatory and analgesic agents” (2013).

Experiments:
Format in all cases: functional
[1] = test system: Mus musculus; experiment: Analgesic activity in NMRI Mus musculus (mouse) assessed as inhibition of acetic acid-induced abdominal writhing at 10 mg/kg administered 30 min prior to acetic acid injection; conditions: Abdomen
[2] = test system: Rattus norvegicus; experiment: Anti-inflammatory activity in Wistar Rattus norvegicus (rat) assessed as inhibition of carrageenan-induced paw edema at 10 mg/kg, ip measured after 30 min; conditions: 0.5 h, route intraperitoneal
[3] = test system: Rattus norvegicus; experiment: Anti-inflammatory activity in Wistar Rattus norvegicus (rat) assessed as inhibition of carrageenan-induced paw edema at 10 mg/kg, ip measured after 1 hr; conditions: route intraperitoneal
[4] = test system: Rattus norvegicus; experiment: Anti-inflammatory activity in Wistar Rattus norvegicus (rat) assessed as inhibition of carrageenan-induced paw edema at 10 mg/kg, ip measured after 3 hr; conditions: route intraperitoneal
[5] = test system: Rattus norvegicus; experiment: Anti-inflammatory activity in Wistar Rattus norvegicus (rat) assessed as inhibition of carrageenan-induced paw edema at 10 mg/kg, ip measured after 2 hr; conditions: route intraperitoneal
[6] = test system: Rattus norvegicus; experiment: Anti-inflammatory activity in Wistar Rattus norvegicus (rat) assessed as inhibition of carrageenan-induced paw edema at 10 mg/kg, ip measured after 4 hr; conditions: route intraperitoneal

COc1ccc(/C=N/NC(=O)c2cccnc2Nc2cccc(C(F)(F)F)c2)cc1OC
inhibition in vivo at 10 mg/kg [1]: 80.7% | inhibition in vivo at 10 mg/kg [2]: 60.1% | inhibition in vivo at 10 mg/kg [3]: 70% | inhibition in vivo at 10 mg/kg [4]: 44% | inhibition in vivo at 10 mg/kg [5]: 49% | inhibition in vivo at 10 mg/kg [6]: 52.9%

O=C(N/N=C/c1ccc(F)cc1)c1cccnc1Nc1cccc(C(F)(F)F)c1
inhibition in vivo at 10 mg/kg [2]: 33.9% | inhibition in vivo at 10 mg/kg [3]: 43.2% | inhibition in vivo at 10 mg/kg [4]: 41.3% | inhibition in vivo at 10 mg/kg [5]: 41.2% | inhibition in vivo at 10 mg/kg [6]: 36.5%

O=C(N/N=C/c1ccc(O)cc1)c1cccnc1Nc1cccc(C(F)(F)F)c1
inhibition in vivo at 10 mg/kg [2]: 59.2% | inhibition in vivo at 10 mg/kg [3]: 70.5% | inhibition in vivo at 10 mg/kg [4]: 59.5% | inhibition in vivo at 10 mg/kg [5]: 68% | inhibition in vivo at 10 mg/kg [6]: 61.6%

O=C(N/N=C/c1ccccc1)c1cccnc1Nc1cccc(C(F)(F)F)c1
inhibition in vivo at 10 mg/kg [1]: 66.2% | inhibition in vivo at 10 mg/kg [2]: 60.4% | inhibition in vivo at 10 mg/kg [3]: 53.9% | inhibition in vivo at 10 mg/kg [4]: 21.2% | inhibition in vivo at 10 mg/kg [5]: 36.8% | inhibition in vivo at 10 mg/kg [6]: 31%

O=C(N/N=C/c1cccc(O)c1)c1cccnc1Nc1cccc(C(F)(F)F)c1
inhibition in vivo at 10 mg/kg [2]: 67.5% | inhibition in vivo at 10 mg/kg [3]: 63.8% | inhibition in vivo at 10 mg/kg [4]: 49% | inhibition in vivo at 10 mg/kg [5]: 65.4% | inhibition in vivo at 10 mg/kg [6]: 35.8%

CNc1ncccc1C(=O)N/N=C/c1ccc(Cl)cc1
inhibition in vivo at 10 mg/kg [2]: 46.5% | inhibition in vivo at 10 mg/kg [3]: 54.7% | inhibition in vivo at 10 mg/kg [4]: 22.4% | inhibition in vivo at 10 mg/kg [5]: 54.1% | inhibition in vivo at 10 mg/kg [6]: 18.2%

CNc1ncccc1C(=O)N/N=C/c1cccnc1
inhibition in vivo at 10 mg/kg [2]: 66.3% | inhibition in vivo at 10 mg/kg [3]: 61.1% | inhibition in vivo at 10 mg/kg [4]: 27.7% | inhibition in vivo at 10 mg/kg [5]: 43.7% | inhibition in vivo at 10 mg/kg [6]: 13.8%

CNc1ncccc1C(=O)N/N=C/c1ccccc1
inhibition in vivo at 10 mg/kg [2]: 56.5% | inhibition in vivo at 10 mg/kg [3]: 67.6% | inhibition in vivo at 10 mg/kg [4]: 22.7% | inhibition in vivo at 10 mg/kg [5]: 47.2% | inhibition in vivo at 10 mg/kg [6]: 14.8%

CN(C)c1ccc(/C=N/NC(=O)c2cccnc2Nc2cccc(C(F)(F)F)c2)cc1
inhibition in vivo at 10 mg/kg [2]: 61.3% | inhibition in vivo at 10 mg/kg [3]: 63.5% | inhibition in vivo at 10 mg/kg [4]: 39.5% | inhibition in vivo at 10 mg/kg [5]: 51.4% | inhibition in vivo at 10 mg/kg [6]: 28.2%

O=C(O)c1cccnc1Nc1cccc(C(F)(F)F)c1 [NIFLUMIC ACID]
inhibition in vivo at 10 mg/kg [1]: 68.3% | inhibition in vivo at 10 mg/kg [2]: 64.1% | inhibition in vivo at 10 mg/kg [3]: 70.4% | inhibition in vivo at 10 mg/kg [4]: 70.6% | inhibition in vivo at 10 mg/kg [5]: 70.1% | inhibition in vivo at 10 mg/kg [6]: 52%

O=C(N/N=C/c1cccc(F)c1)c1cccnc1Nc1cccc(C(F)(F)F)c1
inhibition in vivo at 10 mg/kg [2]: 58.2% | inhibition in vivo at 10 mg/kg [3]: 51.5% | inhibition in vivo at 10 mg/kg [4]: 37% | inhibition in vivo at 10 mg/kg [5]: 52.8% | inhibition in vivo at 10 mg/kg [6]: 29.8%

O=C(N/N=C/c1ccc(Cl)cc1)c1cccnc1Nc1cccc(C(F)(F)F)c1
inhibition in vivo at 10 mg/kg [2]: 52.4% | inhibition in vivo at 10 mg/kg [3]: 67.2% | inhibition in vivo at 10 mg/kg [4]: 48.5% | inhibition in vivo at 10 mg/kg [5]: 52.8% | inhibition in vivo at 10 mg/kg [6]: 43.7%

CNc1ncccc1C(=O)N/N=C/c1ccncc1
inhibition in vivo at 10 mg/kg [1]: 90.6% | inhibition in vivo at 10 mg/kg [2]: 63.2% | inhibition in vivo at 10 mg/kg [3]: 80.4% | inhibition in vivo at 10 mg/kg [4]: 55% | inhibition in vivo at 10 mg/kg [5]: 60.4% | inhibition in vivo at 10 mg/kg [6]: 15.5%

O=C(N/N=C/c1cccnc1)c1cccnc1Nc1cccc(C(F)(F)F)c1
inhibition in vivo at 10 mg/kg [1]: 51.4% | inhibition in vivo at 10 mg/kg [2]: 59.1% | inhibition in vivo at 10 mg/kg [3]: 76.1% | inhibition in vivo at 10 mg/kg [4]: 52.4% | inhibition in vivo at 10 mg/kg [5]: 62.4% | inhibition in vivo at 10 mg/kg [6]: 36%

COc1cccc(/C=N/NC(=O)c2cccnc2Nc2cccc(C(F)(F)F)c2)c1
inhibition in vivo at 10 mg/kg [2]: 52.8% | inhibition in vivo at 10 mg/kg [3]: 58.8% | inhibition in vivo at 10 mg/kg [4]: 30.3% | inhibition in vivo at 10 mg/kg [5]: 49.7% | inhibition in vivo at 10 mg/kg [6]: 14.9%

CNc1ncccc1C(=O)N/N=C/c1cccc(OC)c1
inhibition in vivo at 10 mg/kg [2]: 56.1% | inhibition in vivo at 10 mg/kg [3]: 64.6% | inhibition in vivo at 10 mg/kg [4]: 49.5% | inhibition in vivo at 10 mg/kg [5]: 51.5% | inhibition in vivo at 10 mg/kg [6]: 42.2%

O=C(N/N=C/c1ccc(O)c(O)c1)c1cccnc1Nc1cccc(C(F)(F)F)c1
inhibition in vivo at 10 mg/kg [2]: 51.4% | inhibition in vivo at 10 mg/kg [3]: 50.8% | inhibition in vivo at 10 mg/kg [4]: 38.2% | inhibition in vivo at 10 mg/kg [5]: 46.9% | inhibition in vivo at 10 mg/kg [6]: 21.1%

COc1ccc(/C=N/NC(=O)c2cccnc2Nc2cccc(C(F)(F)F)c2)cc1
inhibition in vivo at 10 mg/kg [1]: 97.4% | inhibition in vivo at 10 mg/kg [2]: 50.4% | inhibition in vivo at 10 mg/kg [3]: 59.4% | inhibition in vivo at 10 mg/kg [4]: 26.5% | inhibition in vivo at 10 mg/kg [5]: 42.4% | inhibition in vivo at 10 mg/kg [6]: 14%

COc1ccc(/C=N/NC(=O)c2cccnc2Nc2cccc(C(F)(F)F)c2)c(OC)c1
inhibition in vivo at 10 mg/kg [2]: 37.8% | inhibition in vivo at 10 mg/kg [3]: 55.7% | inhibition in vivo at 10 mg/kg [4]: 24.1% | inhibition in vivo at 10 mg/kg [5]: 44.7% | inhibition in vivo at 10 mg/kg [6]: 19.8%

O=C(N/N=C/c1ccncc1)c1cccnc1Nc1cccc(C(F)(F)F)c1
inhibition in vivo at 10 mg/kg [1]: 85.6% | inhibition in vivo at 10 mg/kg [2]: 68.1% | inhibition in vivo at 10 mg/kg [3]: 70.2% | inhibition in vivo at 10 mg/kg [4]: 54.9% | inhibition in vivo at 10 mg/kg [5]: 65.2% | inhibition in vivo at 10 mg/kg [6]: 45.9%

COc1cc(/C=N/NC(=O)c2cccnc2Nc2cccc(C(F)(F)F)c2)cc(OC)c1OC
inhibition in vivo at 10 mg/kg [2]: 55.9% | inhibition in vivo at 10 mg/kg [3]: 54.4% | inhibition in vivo at 10 mg/kg [4]: 28.5% | inhibition in vivo at 10 mg/kg [5]: 40.6% | inhibition in vivo at 10 mg/kg [6]: 28.6%

O=C(N/N=C/c1cccc(Cl)c1)c1cccnc1Nc1cccc(C(F)(F)F)c1
inhibition in vivo at 10 mg/kg [1]: 61.9% | inhibition in vivo at 10 mg/kg [2]: 77.8% | inhibition in vivo at 10 mg/kg [3]: 76.7% | inhibition in vivo at 10 mg/kg [4]: 55.2% | inhibition in vivo at 10 mg/kg [5]: 63.5% | inhibition in vivo at 10 mg/kg [6]: 40.4%

CNc1ncccc1C(=O)N/N=C/c1cccc(Cl)c1
inhibition in vivo at 10 mg/kg [2]: 67.1% | inhibition in vivo at 10 mg/kg [3]: 68.6% | inhibition in vivo at 10 mg/kg [4]: 39.5% | inhibition in vivo at 10 mg/kg [5]: 61.7% | inhibition in vivo at 10 mg/kg [6]: 40.4%
